Values quoted from earlier work, collected in PMC7849180 (Frontiers in Pharmacology, 2020).
Where two headings read alike, the source gives them in different places.

What was measured:
myelofibrosis [1] = details: ref Momelotinib extension study; cited from earlier work
myelofibrosis [2] = details: cited from earlier work
myelofibrosis [3] = tested on: myelofibrosis; design: method as in RA Abdelrahman et. al.; details: ref RA Abdelrahman et. al., cited from earlier work; for CR / Clinical Improvement (CI) / PR: 2013 IWG-MRT criteria; for patients with symptom improvement: 2013 IWG-MRT-ELN criteria
myelofibrosis [4] = tested on: myelofibrosis; design: method as in Ruxolitinib Phase I/II trials; details: within 3 months, 153 MF patients, ref Ruxolitinib Phase I/II trials; cited from earlier work
myelofibrosis [5] = tested on: myelofibrosis; design: method as in COMFORT-II; details: Week 48, ref COMFORT-II; cited from earlier work
myelofibrosis [6] = tested on: myelofibrosis; design: method as in COMFORT-I; details: ref COMFORT-I; cited from earlier work
polycythemia vera = details: cited from earlier work
[7] = 150 mg bid, ref Momelotinib Phase I/II
[8] = 150 mg qd, ref Momelotinib Phase I/II
[9] = 300 mg qd, ref Momelotinib Phase I/II
[10] = Grade 1, ref Momelotinib Phase I/II
[11] = Grade 2, ref Momelotinib Phase I/II
[12] = Grade 3, ref Momelotinib Phase I/II
[13] = Grade 4, ref Momelotinib Phase I/II
[14] = Total (n=166), ref Momelotinib Phase I/II
[15] = all cases (n=166), ref Momelotinib Phase I/II

In the case of `N#CCNC(=O)c1ccc(-c2ccnc(Nc3ccc(N4CCOCC4)cc3)n2)cc1` [Momelotinib], the “First Dose Effect: hypotension” value (myelofibrosis [1]) is listed as 5%, the “First Dose Effect: transient dizziness” value (myelofibrosis [1]) is listed as 10% and the “Grade 3/4 thrombocytopenia” value (myelofibrosis [1]) is listed as 30%. For the same compound, the “median maintenance duration of anemia response” value (myelofibrosis [1]) was 1,042 days, the “median spleen response duration” value (myelofibrosis [1]) was 785 days and the “patients with anemia response” value (myelofibrosis [1]) was 53%. The “patients with spleen response (IWG-MRT)” value (myelofibrosis [1]) was 39%, the “Average Reduction in Spleen Volume at Month 6” value (“Average Reduction” for short) (myelofibrosis [2]; [7]) was -46% and the “Hemoglobin Elevation of 2 g/dL or Above (8 Weeks)” value (“Hemoglobin Elevation” for short) (myelofibrosis [2]; [7]) was 14%. For the same compound, the “IWG-MRT Anemia Response Rate” value (myelofibrosis [2]; [7]) was 36%, the “Spleen Response” value (myelofibrosis [2]; [7]) was 38% and the “Transfusion Independence Rate (12 Weeks)” value (myelofibrosis [2]; [7]) was 57%. For the same compound, the “Average Reduction” value (myelofibrosis [2]; [8]) was -36%, the “Hemoglobin Elevation” value (myelofibrosis [2]; [8]) was 11% and the “IWG-MRT Anemia Response Rate” value (myelofibrosis [2]; [8]) was 48%. The “Spleen Response” value (myelofibrosis [2]; [8]) was 32%, the “Transfusion Independence Rate (12 Weeks)” value (myelofibrosis [2]; [8]) was 63% and the “Average Reduction” value (myelofibrosis [2]; [9]) was -38%. For the same compound, the “Hemoglobin Elevation” value (myelofibrosis [2]; [9]) was 8%, the “IWG-MRT Anemia Response Rate” value (myelofibrosis [2]; [9]) was 55% and the “Spleen Response” value (myelofibrosis [2]; [9]) was 39%. For the same compound, the “Transfusion Independence Rate (12 Weeks)” value (myelofibrosis [2]; [9]) was 75%, the “ALP Elevation” value (myelofibrosis [2]; [10]) was 5% and the “ALT Elevation” value (myelofibrosis [2]; [10]) was 9%. The “AST Elevation” value (myelofibrosis [2]; [10]) was 9%, the “Amylase Elevation” value (myelofibrosis [2]; [10]) was 7% and the “Anemia, drug-related AE” value (myelofibrosis [2]; [10]) was 2%. For the same compound, the “Bilirubin Elevation” value (myelofibrosis [2]; [10]) was 7%, the “Creatinine Elevation” value (myelofibrosis [2]; [10]) was 5% and the “Diarrhea, drug-related AE” value (myelofibrosis [2]; [10]) was 18%. For the same compound, the “Headache, drug-related AE” value (myelofibrosis [2]; [10]) was 14%, the “Leukopenia, drug-related AE” value (myelofibrosis [2]; [10]) was 2% and the “Lipase Elevation” value (myelofibrosis [2]; [10]) was 8%. For the same compound, the “Nausea, drug-related AE” value (myelofibrosis [2]; [10]) was 20%, the “Neutropenia, drug-related AE” value (myelofibrosis [2]; [10]) was < 1% and the “Peripheral Neuropathy, drug-related AE” value (myelofibrosis [2]; [10]) was 25%. For the same compound, the “Thrombocytopenia, Baseline Platelet > 150 x 109/L (n=97)” value (“Thrombocytopenia … (n=97)” for short) (myelofibrosis [2]; [10]) was 18%, the “Thrombocytopenia, drug-related AE” value (myelofibrosis [2]; [10]) was 14% and the “Vertigo, drug-related AE” value (myelofibrosis [2]; [10]) was 22%. For the same compound, the “ALP Elevation” value (myelofibrosis [2]; [11]) was 1%, the “ALT Elevation” value (myelofibrosis [2]; [11]) was 3% and the “AST Elevation” value (myelofibrosis [2]; [11]) was 2%. For the same compound, the “Amylase Elevation” value (myelofibrosis [2]; [11]) was 2%, the “Anemia, drug-related AE” value (myelofibrosis [2]; [11]) was 2% and the “Bilirubin Elevation” value (myelofibrosis [2]; [11]) was 2%. The “Creatinine Elevation” value (myelofibrosis [2]; [11]) was 3%, the “Diarrhea, drug-related AE” value (myelofibrosis [2]; [11]) was 4% and the “Leukopenia, drug-related AE” value (myelofibrosis [2]; [11]) was < 1%. The “Lipase Elevation” value (myelofibrosis [2]; [11]) was < 1%, the “Nausea, drug-related AE” value (myelofibrosis [2]; [11]) was < 1% and the “Neutropenia, drug-related AE” value (myelofibrosis [2]; [11]) was 2%. The “Peripheral Neuropathy, drug-related AE” value (myelofibrosis [2]; [11]) was 2%, the “Thrombocytopenia … (n=97)” value (myelofibrosis [2]; [11]) was 1% and the “Thrombocytopenia, drug-related AE” value (myelofibrosis [2]; [11]) was 8%. The “Vertigo, drug-related AE” value (myelofibrosis [2]; [11]) was 1%, the “ALP Elevation” value (myelofibrosis [2]; [12]) was 1% and the “ALT Elevation” value (myelofibrosis [2]; [12]) was 2%. For the same compound, the “AST Elevation” value (myelofibrosis [2]; [12]) was 1%, the “Anemia, drug-related AE” value (myelofibrosis [2]; [12]) was 2% and the “Headache, drug-related AE” value (myelofibrosis [2]; [12]) was 1%. The “Lipase Elevation” value (myelofibrosis [2]; [12]) was 4%, the “Neutropenia, drug-related AE” value (myelofibrosis [2]; [12]) was 1% and the “Thrombocytopenia … (n=97)” value (myelofibrosis [2]; [12]) was 9%. The “Thrombocytopenia, drug-related AE” value (myelofibrosis [2]; [12]) was 17%, the “Leukopenia, drug-related AE” value (myelofibrosis [2]; [13]) was < 1% and the “Neutropenia, drug-related AE” value (myelofibrosis [2]; [13]) was 2%. For the same compound, the “Thrombocytopenia … (n=97)” value (myelofibrosis [2]; [13]) was 1%, the “Thrombocytopenia, drug-related AE” value (myelofibrosis [2]; [13]) was 7% and the “Hemoglobin Elevation” value (myelofibrosis [2]; [14]) was 13%. For the same compound, the “IWG-MRT Anemia Response Rate” value (myelofibrosis [2]; [14]) was 48%, the “Transfusion Independence Rate (12 Weeks)” value (myelofibrosis [2]; [14]) was 68% and the “Average Reduction” value (myelofibrosis [2]; [15]) was -38%. The “Spleen Response” value (myelofibrosis [2]; [15]) was 37%, the “transfusion dependent patients with non-transfusion dependent duration of at least 12 weeks” value (myelofibrosis [2]; n=33, ref Momelotinib Phase I/II) was 70% and the “patients with improvement of anemia” value (myelofibrosis [2]; ref Momelotinib Phase I/II) was 59%. For the same compound, the “symptom controlled: bone pain” value (myelofibrosis [2]; ref Momelotinib Phase I/II) was 33%, the “symptom controlled: cough” value (myelofibrosis [2]; ref Momelotinib Phase I/II) was 29% and the “symptom controlled: fever” value (myelofibrosis [2]; ref Momelotinib Phase I/II) was 100%. The “symptom controlled: night sweat” value (myelofibrosis [2]; ref Momelotinib Phase I/II) was 57%, the “symptom controlled: pruritus” value (myelofibrosis [2]; ref Momelotinib Phase I/II) was 52% and the CR (myelofibrosis [3]) was 0 (0%) n (%). The “Clinical Improvement (CI)” value (myelofibrosis [3]) was 34 (57%) n (%), the PR (myelofibrosis [3]) was 1 (1.7%) n (%) and the “patients with symptom improvement” value (myelofibrosis [3]) was 57%. For the same compound, the “Anemia Response” value (myelofibrosis [3]) was 42 (19; 45%) n (responses; %), the “Anemia Response in Transfusion-Dependent Patients” value (myelofibrosis [3]) was 32 (17; 53%) n (responses; %) and the “Spleen Response” value (myelofibrosis [3]) was 57 (24; 42%) Evaluables (responses; %). For the same compound, the anemia response rate (myelofibrosis [3]) was 45% and the “spleen volume reduction response rate” value (myelofibrosis [3]) was 42%.

For `N#CC[C@H](C1CCCC1)n1cc(-c2ncnc3[nH]ccc23)cn1` [Ruxolitinib], the “patients with >50% reduction in spleen volume” value (myelofibrosis [4]) is listed as 44%, the “patients with ≥35% reduction in spleen volume” value (myelofibrosis [5]) is listed as 28% and the CR (myelofibrosis [3]) is listed as 0 (0%) n (%). The “Clinical Improvement (CI)” value (myelofibrosis [3]) was 9 (18%) n (%), the PR (myelofibrosis [3]) was 0 (0%) n (%) and the “patients with symptom improvement” value (myelofibrosis [3]) was 18%. For the same compound, the “Anemia Response” value (myelofibrosis [3]) was 19 (2; 11%) n (responses; %), the “Anemia Response in Transfusion-Dependent Patients” value (myelofibrosis [3]) was 12 (2; 17%) n (responses; %) and the “Spleen Response” value (myelofibrosis [3]) was 46 (7; 15%) Evaluables (responses; %). The anemia response rate (myelofibrosis [3]) was 11%, the “spleen volume reduction response rate” value (myelofibrosis [3]) was 15% and the “patients with ≥35% reduction in spleen volume” value (myelofibrosis [6]) was 41.9%. The “Thrombus, patients” value (polycythemia vera; Ruxolitinib group, ref RESPONSE study) was 1, the Herpes zoster infection (polycythemia vera; in vivo) was 6% and the herpes zoster incidence (polycythemia vera; in vivo) was 4.7%.
